Source: PubChem BioAssay AID1919000 (Molecular Pharmacology Branch, DTP, NCI, 2023)
pIC50: −log10 of the molar value. “And” between values parts separate entries of the source, which are not always exact repeats. Equal values may be shown once.

System: 653999-131-R-J2-PDC complex spheroids, growth % test/control
Assay: Anticancer human tumor 653999-131-R-J2-PDC patient-derived lung adenocarcinoma cell line growth inhibition [AhR]
Conditions: for viability, T/C: stronger effect = lower value
Summary of the method: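 Spheroids combined tumor cells with HUVEC endothelial cells and human MSCs as stroma. AhR antagonists were paired with standard or investigational drugs, each dosed in half-log steps down from near clinical Cmax, or from 10 microM where Cmax was unknown.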

[1] = curve of first compound, second compound 0.1 µM
[2] = curve of first compound, second compound 0.316 µM
[3] = curve of first compound, second compound 1 µM
[4] = curve of first compound, second compound 3.16 µM
[5] = curve of first compound, second compound 10 µM
[6] = second compound 0.1 µM, first compound 0.0316 µM
[7] = second compound 0.1 µM, first compound 0.1 µM
[8] = second compound 0.1 µM, first compound 0.316 µM
[9] = second compound 0.1 µM, first compound 1 µM
[10] = second compound 0.1 µM, first compound 3.16 µM
[11] = second compound 0.1 µM, first compound 10 µM
[12] = second compound 0.316 µM, first compound 0.0316 µM
[13] = second compound 0.316 µM, first compound 0.1 µM
[14] = second compound 0.316 µM, first compound 0.316 µM
[15] = second compound 0.316 µM, first compound 1 µM
[16] = second compound 0.316 µM, first compound 3.16 µM
[17] = second compound 0.316 µM, first compound 10 µM
[18] = second compound 1 µM, first compound 0.0316 µM
[19] = second compound 1 µM, first compound 0.1 µM
[20] = second compound 1 µM, first compound 0.316 µM
[21] = second compound 1 µM, first compound 1 µM
[22] = second compound 1 µM, first compound 3.16 µM
[23] = second compound 1 µM, first compound 10 µM
[24] = second compound 3.16 µM, first compound 0.0316 µM
[25] = second compound 3.16 µM, first compound 0.1 µM
[26] = second compound 3.16 µM, first compound 0.316 µM
[27] = second compound 3.16 µM, first compound 1 µM
[28] = second compound 3.16 µM, first compound 3.16 µM
[29] = second compound 3.16 µM, first compound 10 µM
[30] = second compound 10 µM, first compound 0.0316 µM
[31] = second compound 10 µM, first compound 0.1 µM
[32] = second compound 10 µM, first compound 0.316 µM
[33] = second compound 10 µM, first compound 1 µM
[34] = second compound 10 µM, first compound 3.16 µM
[35] = second compound 10 µM, first compound 10 µM
[36] = second compound 0.1 µM, first compound 0.00949 µM
[37] = second compound 0.1 µM, first compound 0.03 µM
[38] = second compound 0.1 µM, first compound 0.0949 µM
[39] = second compound 0.1 µM, first compound 0.3 µM
[40] = second compound 0.1 µM, first compound 0.949 µM
[41] = second compound 0.1 µM, first compound 3 µM
[42] = second compound 0.316 µM, first compound 0.00949 µM
[43] = second compound 0.316 µM, first compound 0.03 µM
[44] = second compound 0.316 µM, first compound 0.0949 µM
[45] = second compound 0.316 µM, first compound 0.3 µM
[46] = second compound 0.316 µM, first compound 0.949 µM
[47] = second compound 0.316 µM, first compound 3 µM
[48] = second compound 1 µM, first compound 0.00949 µM
[49] = second compound 1 µM, first compound 0.03 µM
[50] = second compound 1 µM, first compound 0.0949 µM
[51] = second compound 1 µM, first compound 0.3 µM
[52] = second compound 1 µM, first compound 0.949 µM
[53] = second compound 1 µM, first compound 3 µM
[54] = second compound 3.16 µM, first compound 0.00949 µM
[55] = second compound 3.16 µM, first compound 0.03 µM
[56] = second compound 3.16 µM, first compound 0.0949 µM
[57] = second compound 3.16 µM, first compound 0.3 µM
[58] = second compound 3.16 µM, first compound 0.949 µM
[59] = second compound 3.16 µM, first compound 3 µM
[60] = second compound 10 µM, first compound 0.00949 µM
[61] = second compound 10 µM, first compound 0.03 µM
[62] = second compound 10 µM, first compound 0.0949 µM
[63] = second compound 10 µM, first compound 0.3 µM
[64] = second compound 10 µM, first compound 0.949 µM
[65] = second compound 10 µM, first compound 3 µM
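Further: spheroids exposed to agents for seven days.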
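Wherever viability, T/C is given: 100% = DMSO vehicle control viability.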

SMILES: COc1cccc2c1C(=O)c1c(O)c3c(c(O)c1C2=O)CC(O)(C(=O)CO)CC3OC1CC(N)C(O)C(C)O1 (configuration not stated) + Cc1ccccc1N=Nc1ccc(NC(=O)c2ccnn2C)c(C)c1
- pIC50 [1]: > 7.50
- pIC50 [2]: > 7.50
- pIC50 [3]: > 7.50
- pIC50 [4]: 7.02
- pIC50 [5]: 6.89
- viability, T/C [6]: 50.3%
- viability, T/C [7]: 44.6%
- viability, T/C [8]: 25.8%
- viability, T/C [9]: 9.24%
- viability, T/C [10]: 5.33%
- viability, T/C [11]: 16.6%
- viability, T/C [12]: 50.5%
- viability, T/C [13]: 40.8%
- viability, T/C [14]: 29.3%
- viability, T/C [15]: 9.21%
- viability, T/C [16]: 4.48%
- viability, T/C [17]: 17.2%
- viability, T/C [18]: 48.8%
- viability, T/C [19]: 44%
- viability, T/C [20]: 28.6%
- viability, T/C [21]: 10.4%
- viability, T/C [22]: 8.05%
- viability, T/C [23]: 19.6%
- viability, T/C [24]: 55.6%
- viability, T/C [25]: 47%
- viability, T/C [26]: 32.6%
- viability, T/C [27]: 12.3%
- viability, T/C [28]: 11.6%
- viability, T/C [29]: 19.2%
- viability, T/C [30]: 60.5%
- viability, T/C [31]: 51%
- viability, T/C [32]: 37.2%
- viability, T/C [33]: 16.3%
- viability, T/C [34]: 8.54%
- viability, T/C [35]: 22.5%

SMILES: Nc1ncn(C2CC(O)C(CO)O2)c(=O)n1 (configuration not stated)
- viability, T/C (compound 0.00316 µM): 105% and 95.5% and 110%
- viability, T/C (compound 0.01 µM): 106% and 102% and 111%
- viability, T/C (compound 0.0316 µM): 96.8% and 96.9% and 93.9%
- viability, T/C (compound 0.1 µM): 89.9% and 86.5% and 91.9%
- viability, T/C (compound 0.316 µM): 86.2% and 91.9% and 90.9%
- viability, T/C (compound 1 µM): 77.5% and 78.8% and 85.9%
- pIC50 (curve of compound): < 6.00

SMILES: CCN(c1cc(-c2ccc(CN3CCOCC3)cc2)cc(C(=O)NCc2c(C)cc(C)[nH]c2=O)c1C)C1CCOCC1 + Cc1ccccc1N=Nc1ccc(NC(=O)c2ccnn2C)c(C)c1
- pIC50 [1]: < 5.52
- pIC50 [2]: < 5.52
- pIC50 [3]: < 5.52
- pIC50 [4]: < 5.52
- pIC50 [5]: < 5.52
- viability, T/C [36]: 92.9%
- viability, T/C [37]: 102%
- viability, T/C [38]: 97.9%
- viability, T/C [39]: 103%
- viability, T/C [40]: 97.8%
- viability, T/C [41]: 92.7%
- viability, T/C [42]: 93.2%
- viability, T/C [43]: 95.6%
- viability, T/C [44]: 95.5%
- viability, T/C [45]: 95.3%
- viability, T/C [46]: 93.3%
- viability, T/C [47]: 92.5%
- viability, T/C [48]: 91.6%
- viability, T/C [49]: 95.2%
- viability, T/C [50]: 89%
- viability, T/C [51]: 91.8%
- viability, T/C [52]: 88.3%
- viability, T/C [53]: 93%
- viability, T/C [54]: 102%
- viability, T/C [55]: 96.1%
- viability, T/C [56]: 92.8%
- viability, T/C [57]: 89.5%
- viability, T/C [58]: 86.3%
- viability, T/C [59]: 84%
- viability, T/C [60]: 82.1%
- viability, T/C [61]: 80.8%
- viability, T/C [62]: 81.6%
- viability, T/C [63]: 86.1%
- viability, T/C [64]: 78.8%
- viability, T/C [65]: 79.9%

SMILES: COc1cc(C2c3cc4c(cc3C(OC3OC5COC(C)OC5C(O)C3O)C3COC(=O)C23)OCO4)cc(OC)c1O (configuration not stated) + Cc1ccccc1N=Nc1ccc(NC(=O)c2ccnn2C)c(C)c1
- pIC50 [1]: 6.07
- pIC50 [2]: 6.25
- pIC50 [3]: 6.29
- pIC50 [4]: 6.02
- pIC50 [5]: 6.02
- viability, T/C [6]: 86%
- viability, T/C [7]: 76%
- viability, T/C [8]: 58.6%
- viability, T/C [9]: 48.8%
- viability, T/C [10]: 38.1%
- viability, T/C [11]: 28.3%
- viability, T/C [12]: 86.2%
- viability, T/C [13]: 68.6%
- viability, T/C [14]: 54%
- viability, T/C [15]: 47.3%
- viability, T/C [16]: 34%
- viability, T/C [17]: 29.1%
- viability, T/C [18]: 90.2%
- viability, T/C [19]: 72.6%
- viability, T/C [20]: 53.7%
- viability, T/C [21]: 42.8%
- viability, T/C [22]: 37.7%
- viability, T/C [23]: 30.2%
- viability, T/C [24]: 80%
- viability, T/C [25]: 77.4%
- viability, T/C [26]: 62%
- viability, T/C [27]: 46.1%
- viability, T/C [28]: 42.5%
- viability, T/C [29]: 27.7%
- viability, T/C [30]: 72.6%
- viability, T/C [31]: 68.7%
- viability, T/C [32]: 58%
- viability, T/C [33]: 49%
- viability, T/C [34]: 41.4%
- viability, T/C [35]: 31.8%

SMILES: O=C(C=Cn1cnc(-c2cc(C(F)(F)F)cc(C(F)(F)F)c2)n1)NNc1cnccn1 + CC(CO)NC(=O)c1cc(-c2ccc(Cl)cc2)nn(-c2cnn(C)c2)c1=O
- pIC50 [1]: 6.12
- pIC50 [2]: 6.11
- pIC50 [3]: 6.09
- pIC50 [4]: 5.91
- pIC50 [5]: < 5.52
- viability, T/C [36]: 103%
- viability, T/C [37]: 110%
- viability, T/C [38]: 76.1%
- viability, T/C [39]: 59.7%
- viability, T/C [40]: 48.9%
- viability, T/C [41]: 45.1%
- viability, T/C [42]: 109%
- viability, T/C [43]: 98%
- viability, T/C [44]: 71.3%
- viability, T/C [45]: 59.7%
- viability, T/C [46]: 51.1%
- viability, T/C [47]: 40%
- viability, T/C [48]: 95.8%
- viability, T/C [49]: 103%
- viability, T/C [50]: 86.1%
- viability, T/C [51]: 61.1%
- viability, T/C [52]: 51.7%
- viability, T/C [53]: 42.8%
- viability, T/C [54]: 114%
- viability, T/C [55]: 105%
- viability, T/C [56]: 96.1%
- viability, T/C [57]: 64.2%
- viability, T/C [58]: 55.5%
- viability, T/C [59]: 43.6%
- viability, T/C [60]: 111%
- viability, T/C [61]: 101%
- viability, T/C [62]: 86.5%
- viability, T/C [63]: 65.6%
- viability, T/C [64]: 54%
- viability, T/C [65]: 54.4%
